Tests used:
[1] = Lipophilicity, log D of the compound by shake-flask method; assay type: physicochemical; settings: octanol/water
[2] = Oral bioavailability in dog; assay type: ADME, organism-based, Canis lupus familiaris; settings: in vivo
[3] = Half life in dog at 1 mg/kg, iv and 3 mg/kg, po; assay type: ADME, organism-based, Canis lupus familiaris; settings: in vivo
[4] = Clearance in dog at 1 mg/kg, iv and 3 mg/kg, po; assay type: ADME, organism-based, Canis lupus familiaris; settings: in vivo
[5] = Volume of distribution at steady state in dog at 1 mg/kg, iv and 3 mg/kg, po; assay type: ADME, organism-based, Canis lupus familiaris; settings: in vivo, read-out: Vdss
[6] = Permeability from basolateral to apical side of MDCK cells expressing MDR1; assay type: ADME, cell-based, Canis lupus familiaris; settings: dog
[7] = Permeability from apical to basolateral side of MDCK cells expressing MDR1; assay type: ADME, cell-based, Canis lupus familiaris; settings: dog

Structure (SMILES)	logD [1]	further results
CCc1nc2c(c(C(N)=O)n1)CN(C(=O)CCc1ccc(OC(F)(F)F)cc1)CC2	2.9	–
CCNc1nc2c(c(C(N)=O)n1)CN(C(=O)CCc1ccccc1)CC2	1.4	–
NC(=O)c1nc(C2CC2)nc2c1CN(C(=O)CCc1ccc(OC(F)(F)F)cc1)CC2	3.3	–
Cc1ccc(N(C)C(=O)c2c(-c3ccccc3Cl)noc2C)cc1Cl	3.9	–
COc1ccc2cc(CNCCc3ccc(Br)cc3)c(-c3ccsc3)nc2c1	5.1	–
CCNc1nc2c(c(C(N)=O)n1)CN(C(=O)CCc1ccc(C(C)C)cc1)CC2	3.4	–
CCNc1nc2c(c(C(N)=O)n1)CN(C(=O)CCc1ccc(OC)cc1)CC2	1.05	–
CCNc1nc2c(c(C(N)=O)n1)CN(C(=O)CCc1ccc(CC(F)(F)F)cc1)CC2	2.6	–
CC[C@H]1[C@@H](O)[C@@H]2[C@H](C[C@H](O)[C@]3(C)[C@@H]([C@H](C)C[C@H](C)C(=O)O)CC[C@@H]23)[C@@]2(C)CCC(O)C[C@@H]12 (single isomer, unassigned)	1.85	–
CCNc1nc2c(c(C(N)=O)n1)CN(C(=O)CCc1ccc(OC(F)(F)F)cc1)CC2	3	bioavailability [2]: 41%; half-life [3]: 50.4 min; clearance [4]: 8.05 mL/min/kg; Vd [5]: 0.43 L/kg; Papp B→A [6]: 19.2 ×10⁻⁶ cm/s; Papp A→B [7]: 12.4 ×10⁻⁶ cm/s
CCNc1nc2c(c(C(N)=O)n1)CN(C(=O)CCc1ccc(C(C)(F)F)nc1)CC2	1.4	–
CCOc1nc2c(c(C(N)=O)n1)CN(C(=O)CCc1ccc(OC(F)(F)F)cc1)CC2	2.9	–
CCNc1nc2c(c(C(N)=O)n1)CN(C(=O)CCc1ccc(SC(F)(F)F)cc1)CC2	3.5	–
CCNc1nc2c(c(C(N)=O)n1)CN(C(=O)CCc1ccc(CC)cc1)CC2	2.4	–
CCNc1nc2c(c(C(N)=O)n1)CN(C(=O)CCc1ccc(C(C)(F)F)cc1)CC2	2.2	–
CCc1nnn(-c2ccccc2)c1C(=O)N(C)c1ccc(Cl)cc1	2.9	–

Source: ChEMBL document CHEMBL2331085, “Identification of Tetrahydropyrido[4,3-d]pyrimidine Amides as a New Class of Orally Bioavailable TGR5 Agonists” (ACS Med Chem Lett, 2013)
